“And” between values parts separate entries of the source, which are not always exact repeats. Equal entries are not always repeated. Where two headings read alike, the source gives them in different places.
Key:
[1] = Parallel artificial membrane permeability assay (PAMPA); conditions: for Permeation: pH 7.4; for Retention: retention in artificial membrane
Experimental: A parallel artificial membrane permeability assay (PAMPA) was conducted on a Biomek FX lab automation workstation (Beckman Coulter, Inc.) with PAMPA evolution 96 command software (pION Inc.) as follows: 3 μL of 10 mM test compound stock was mixed with 600 μL of PBS (pH 7.4) to make diluted test compound. Then 150 μL of diluted test compound was transferred to a UV plate (pION Inc.), and the UV spectrum was read as the reference plate. The membrane on a preloaded PAMPA sandwich (pION Inc.) was painted with 4 μL of GIT lipid (pION Inc.). The acceptor chamber was then filled with 200 μL of acceptor solution buffer (pION Inc.), and the donor chamber was filled with 180 μL of diluted test compound. The PAMPA sandwich was assembled, placed on the Gut-Box controlled environment chamber and stirred for 30 min. The aqueous boundary layer was set to 40 μm for stirring. The UV spectrum (250–500 nm) of the donor and the acceptor were read. The permeability coefficient was calculated using PAMPA Evolution 96 Command software (pION Inc.) based on the AUC of the reference plate, the donor plate, and the acceptor plate. All compounds were tested in triplicate.

[2] = biological target: T1, human GLUT1 (Homo sapiens, UniProt P11166); assay: Uptake of [3H] D-glucose by L. mexicana Δlmxgt1-3 null mutants expressing GLUT1; assay type: cell-based; parameters: expressed in transfected cells; host or cells: Leishmania mexicana promastigotes, Δlmxgt1-3 hexose transporter null mutant; conditions: inhibition of uptake of 100 μM [3H] D-glucose, 1 min uptake assay
T1 sequence (P11166 1-492): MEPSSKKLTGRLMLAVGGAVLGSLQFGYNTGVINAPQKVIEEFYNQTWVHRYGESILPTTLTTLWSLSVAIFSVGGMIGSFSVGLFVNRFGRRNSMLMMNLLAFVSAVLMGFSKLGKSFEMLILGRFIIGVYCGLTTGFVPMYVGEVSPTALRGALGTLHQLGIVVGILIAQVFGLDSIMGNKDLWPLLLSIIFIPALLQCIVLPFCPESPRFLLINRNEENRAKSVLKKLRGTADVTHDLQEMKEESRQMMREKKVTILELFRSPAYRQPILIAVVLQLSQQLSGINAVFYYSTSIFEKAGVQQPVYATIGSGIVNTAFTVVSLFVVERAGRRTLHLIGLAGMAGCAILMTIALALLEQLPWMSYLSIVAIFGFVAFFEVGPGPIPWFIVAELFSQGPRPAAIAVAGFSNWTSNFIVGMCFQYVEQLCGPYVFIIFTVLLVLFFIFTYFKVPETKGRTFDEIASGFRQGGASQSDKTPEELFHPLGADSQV
Experimental: Glucose uptake assays employed logarithmic phase L. mexicana promastigotes of the Δlmxgt1-3 hexose transporter null mutant strain expressing either PfHT or GLUT1 from an episomal expression vector [17]. Parasites (1x10^7) were resuspended in 100 μL phosphate buffered saline, pH 7.4. Prior to uptake, parasites were pre-incubated for 5 min with inhibitor, and uptake was initiated by adding 100 μL of 200 μM [^3H] D-glucose diluted to 4.0 μCi/mL. Uptake was terminated, typically after 1 min, by centrifuging the parasites through a layer of dibutyl phthalate, as described. Control uptake assays employing [^3H] hypoxanthine, [^3H] uridine, and [^3H] L-proline were performed similarly. Analysis of kinetic data was performed using Graph Pad Prism 4.0b software (Graph Pad).

[3] = system: P. falciparum strain 3D7; assay: Proliferation of intraerythrocytic P. falciparum 3D7 (SYBR Green, 72 h); assay type: cell-based, Plasmodium falciparum; conditions: chloroquine sensitive strain 3D7, 72 h, read-out: Pf 3D7 EC50
Experimental: Two P. falciparum strains were used in this study and were provided by the MR4 Unit of the American Type Culture Collection (ATCC, Manassas, VA). Those two strains were the chloroquine sensitive strain 3D7 and the K1 strain that is resistant to chloroquine, pyrimethamine, and sulfadoxine.
Asynchronous parasites were maintained in culture based on the method of Trager. Parasites were grown in presence of fresh group O-positive erythrocytes (Key Biologics, LLC) in Petri dishes at a hematocrit of 4–6% in RPMI based media (RPMI 1640 supplemented with 0.5% AlbuMAX II, 25 mM HEPES, 25 mM NaHCO3 (pH 7.3), 100 μg/mL hypoxanthine, and 5 μg/mL gentamycin). Cultures were incubated at 37°C in a gas mixture of 90% N2, 5% O2, 5% CO2. For EC50 determinations, 20 μL of RPMI 1640 with 5 μg/mL gentamycin were dispensed per well in an assay plate (Corning 384-well microtiter plate, clear bottom, tissue culture treated, catalog no. 8807BC). 40 nL of compound, previously serially diluted in a separate 384-well white polypropylene plate (Corning, catalog no. 8748BC), was dispensed to the assay plate by hydrodynamic pin transfer (FP1S50H, V&P Scientific Pin Head) and then 20 μL of a synchronized culture suspension (1% rings, 4% hematocrit) was added to each well, thus making a final hematocrit and parasitemia of 2% and 1%, respectively. Assay plates were incubated for 72 h, and the parasitemia was determined by a method previously described: Briefly, 10 μL of the assay solution in PBS (10X SYBR Green I, 0.5% v/v triton X-100, 0.5 mg/mL saponin) was added to each well. Assay plates were shaken for 1 min, incubated in the dark for 90 min, and read with an Envision (Perkin Elmer) spectrophotometer at Ex/Em of 485 nm/535 nm. EC50s were calculated with a custom program (RISE, Robust Investigation of Screening Experiments) using a four-parameter logistic equation.

[4] = system: BJ cell line (human foreskin fibroblasts); assay: Mammalian cell drug susceptibility assay (Cell Titer Glo, 72 h); assay type: cell-based
Experimental: The BJ cell line (human foreskin fibroblasts), which express GLUT1 [26], was purchased from the ATTC and cultured according to recommendations. 1000 exponentially growing cells were plated per well (25 μL) in white polystyrene flat bottom sterile 384-well tissue culture treated plates (Corning), and incubated overnight at 37°C in a humidified 5% CO2 incubator. DMSO inhibitor stock solutions were pin-transferred (V&P Scientific) the following day. Plates were placed back in the incubator for 72 h incubation and equilibrated at room temperature for 20 min before addition of 25 μL Cell Titer Glo (Promega) to each well. Plates were shaken on an orbital shaker for 2 min at 500 rpm. Luminescence was read after 15 min on an Envision plate reader (Perkin Elmer). EC50 values were calculated with a custom program (RISE, Robust Investigation of Screening Experiments) using a four-parameter logistic equation.

[5] = system: P. falciparum strain 3D7 intraerythrocytic forms; parameters: method as in PubChem web site, http://pubchem.ncbi.nlm.nih.gov/; conditions: reported values; ref PubChem web site, http://pubchem.ncbi.nlm.nih.gov/; read-out: EC50 3D7 In vitro; cited from earlier work
[6] = Plasmodium falciparum, 3D7, 72 h

In the case of `CC1CCCCN1S(=O)(=O)c1ccc2nc(Nc3cccc(C#N)c3)ccc2c1` (stereo not shown) [Compound 13], the Permeation [1] is reported as 582 ± 205 10^-6 cm/s, the Retention [1] is reported as 93 ± 0.5% and the IC50 [2] is reported as 30 µM. The EC50 [3, 6] was > 10 µM, the EC50 [3] was 11 µM and the EC50 [4] was > 25 µM.
With `CC1CCCCN1S(=O)(=O)c1ccc2nc(Nc3ccccc3)ccc2c1` (stereo not shown) [Compound 10] the Permeation [1] was 534 ± 25 10^-6 cm/s, the Retention [1] was 80 ± 12% and the IC50 [2] was > 10 µM. For the same compound, the EC50 [3, 6] was > 10 µM, the EC50 [3] was 15 µM and the EC50 [4] was > 25 µM.
Compound `CC1CCCCN1S(=O)(=O)c1ccc2nc(Nc3ccc(C#N)cc3)ccc2c1` (stereo not shown) [Compound 12] has a Permeation [1] of 570 ND 10^-6 cm/s, a Retention [1] of 93 ± 3.8% and an IC50 [2] of 2.5 µM. The EC50 [3, 6] was > 10 µM, the EC50 [3] was > 16 µM and the EC50 [4] was > 26 µM.
For `COc1cc(Nc2ccc3cc(S(=O)(=O)N4CCCCC4C)ccc3n2)cc(OC)c1OC` (stereo not shown) [Compound 1], the Permeation [1] was 1057 ± 69 10^-6 cm/s, the Retention [1] was 70 ± 2.0% and the IC50 [2] was 3.2 µM and > 3 µM. The EC50 [3, 6] was ~1 µM, the EC50 [3] was 1.4 µM and the EC50 [4] was > 23 µM. The EC50 [5] was 1.24 µM.

— article PMC4404333, “Identification of Selective Inhibitors of the Plasmodium falciparum Hexose Transporter PfHT by Screening Focused Libraries of Anti-Malarial Compounds” (PLoS ONE, 2015)
